Source: patent US20030157205A1, “Inhibitory and preventative effects of processed morinda citrifolia on mutagenesis and carcinogenesis in mammals” (priority 2001, published 2003)

Tested on: mammary gland carcinogenesis induced by 17 β-estradiol (E2)
Experiment: Estrogen (E2 pellet)-induced mammary carcinogenesis in female ACI rats
Assay type: in vivo
Conditions: for survival rate: control 100%, placebo 0%
From the text: This study indicates the preventative effects of Methyl Sulfonyl Methane (MSM), processed Morinda citrifolia products (e.g., Tahitian Noni juice), and their combination on estrogen-induced mammary carcinogenesis in female ACI rats.
In the study, the preventative effects of MSM, Morinda citrifolia, and their combination on mammary gland carcinogenesis induced by 17 β-estradiol (estrogen)(E2) pellet implants in female ACI rats was studied. In the experiment, sixty (60), five week old female rats were divided into four groups, fifteen (15) rats each, and placed on regular diets. Another eight (8) female ACI rats were served as the age-matched controls. Five percent placebo, five percent Morinda citrifolia, five percent MSM, a combination of five percent Morinda citrifolia and MSM in drinking water was supplied to the animals in different groups until ninety days after E2 implantation. Two weeks later, all animals were implanted subcutaneously with a 25 mg pellet containing 22.5 mg of 17 β-estradiol (e2) mixed with 2.5 mg cholesterol, and the age-matched control animals received a 25 mg cholesterol pellet implant.

Q: For CS(C)(=O)=O [MSM, Methyl Sulfonyl Methane], which body weight loss (5% in drinking water, E2-implanted female ACI rats, placebo group had significant loss vs cholesterol control) is on record?
A: slight body weight loss

Q: And the “percent of the rats with mammary tumors” value (5% in drinking water, E2 implant, placebo group one hundred percent)?
A: fifty-seven

Q: And the “number of tumors per rat” value (5% in drinking water, E2 implant, placebo group three to seven)?
A: one to four

Q: What about the survival rate (160 days after E2 implantation) of the same compound?
A: 73%

Q: And the survival rate (180 days after E2 implantation)?
A: 20%

Q: What about the average tumor area (180 days after E2 implantation, placebo 17) of the same compound?
A: 12 mm2

Q: What about the survival rate (200 days after E2 implantation) of the same compound?
A: 0%
